Patent US20230381202A1, “COMPOSITIONS AND METHODS FOR TREATING CARDIOVASCULAR RELATED DISORDERS” (The Regents of the University of Michigan, priority 2020, published 2023)

Legend:
washed human platelets = test: In vitro washed human platelet aggregation test (thrombin-induced); assay type: cell-based; details: ML355 10 μM, sHDL 100 μg/mL, 15 minutes
Method: Human platelets were prepared and aggregation was assayed as described previously (44, 45, 56). Platelets were incubated with DMSO (equivalent volume to dissolve ML355) and treated with control, ML355 (10 μM), sHDL (100 μg/mL), or ML355-sHDL (sHDL at 100 μg/mL and ML355 at 10 μM) for 15 minutes. In addition, untreated platelets were included as control. Platelet aggregation was induced by various doses of thrombin (0.1-1 nM) as reported in previous studies (44). Aggregation was measured in response to thrombin with a lumi-aggregometer (Model 700D; Chrono-Log) under stirring conditions at 1100 rpm at 37° C.

washed mouse platelets = test: Ex vivo washed mice platelet activation inhibition test (thrombin-induced aggregation); assay type: in vivo; details: for platelet aggregation: 24 hours after IV ML355 1.5 mg/kg, sHDL 50 mg/kg
Method: Male and female C57BL/6J mice were divided into four groups (n=4) and intravenously dosed with the following formulations: 1) control vehicle (equivalent volume); 2) ML355 (1.5 mg/kg); 3) sHDL (50 mg/kg); or 4) ML355-sHDL (sHDL at 50 mg/kg and ML355 at 1.5 mg/kg). 24 hours after administration, mice were sacrificed under terminal anesthesia. […] Mouse platelet preparation was performed as previously described (44, 45). Murine platelets were resuspended at 3×10^8 platelets/mL in Tyrode's buffer. Mouse platelet aggregation was induced by various doses of thrombin (0.1-0.5 nM) and measured with a lumi-aggregometer using the same method described above.

C57BL/6J mice [1] = test: Laser-induced cremaster arteriole thrombosis model; assay type: in vivo, mouse; details: IV 24 hours before injury; ML355 1.5 mg/kg, sHDL 50 mg/kg
Method: Male C57BL/6J mice (n=3) were intravenously dosed with the following treatments: 1) saline control (equivalent volume); 2) ML355 (1.5 mg/kg); 3) sHDL (50 mg/kg); or 4) ML355-sHDL (sHDL at 50 mg/kg and ML355 at 1.5 mg/kg). 24 hours post-administration, mice were anesthetized and surgically prepared as above described. DyLight 647-conjugated rat anti-mouse platelet GP11:43 antibody (0.1 μg/g; X649; EMFRET Analytics) was administered by jugular vein cannula prior to vascular injury. Multiple independent thrombi (8-10) were induced in the arterioles (30-50 μm diameter) in each mouse (3 mice per group) by a laser ablation system. All captured images were analyzed for change in fluorescent intensity over time of thrombus formation by subtracting fluorescent background defined on an uninjured section of the vessel using the Slidebook program. To monitor and compare dynamic thrombus formation among different treatment groups, the relative fluorescent intensity of Alexa Flour 647-labled platelets (recruited within thrombus) was plotted using the mean fluorescence at each time point. Data were evaluated for significance with two-way ANOVA and Mann-Whitney test for nonparametric data using Prism 6 software (Graphpad, La Jolla, CA, USA).

C57BL/6J mice [2] = test: FeCl3-induced carotid artery thrombosis model; assay type: in vivo, mouse; details: IV 24 hours before 10% FeCl3 injury
Method: Male and female C57BL/6J mice (n=6) were intravenously injected with vehicle control (equivalent volume of saline), ML355 (1.5 mg/kg), sHDL (50 mg/kg) or ML355-sHDL (sHDL at 50 mg/kg and ML355 at 1.5 mg/kg), respectively. 24 hours post-administration, mice were anesthetized as described above and tail veins were injected with a DyLight 488 anti-GPIb (1 μg/g; Emfret, Elbelstadt, Germany) to label circulating resting platelets in mice prior to intravital microscopy imaging. The mice were placed on a heating pad and the right common carotid artery was prepared under the dissecting microscope. Then, the mice were placed on the microscopic stage and blood flow in the carotid artery was visualized under 10× air objective using a Zeiss Axio Examiner Z1 upright fluorescent microscopy. Carotid artery injury was induced by topically placing a 10% FeCl3 saturated Whatman paper for 3 minutes under recording. Images of platelet adhesion and the dynamics of thrombus formation were recorded for 30 minutes using a high-speed sCMOS camera using Slidebook 6.0.

platelets = test: Phosphatidylserine exposure on platelets; assay type: in vivo, mouse; details: 1, 6 and 24 hours post IV; compared to resting platelets
Method: Male and female C57BL/6J mice (n=6) were intravenously dosed with the following treatments: 1) Saline control (equivalent volume); 2) ML355 (1.5 mg/kg); 3) sHDL (50 mg/kg); or 4) ML355-sHDL (sHDL at 50 mg/kg and ML355 at 1.5 mg/kg). At different time points post administration (1, 6 and 24 hours), the phosphatidylserine-exposure over time course in platelets from different groups were quantified by flow cytometry. Briefly, whole blood was collected from the saphenous vein and incubated with PE anti-mouse CD41 Antibody (BioLegend #133906) for platelet labeling and Annexin V, Alexa Fluor™ 647 conjugate (phosphatidylserine-exposure) (Thermo Fisher Scientific). The mean fluorescent intensity of Annexin in platelets was quantified by flow cytometry. In addition, blood collected from mice prior to treatment was taken as resting platelets (negative control) and blood stimulated with PAR4-AP (200 μM) was used as activated platelets (positive control).

C57BL/6J mice [3] = test: Mouse tail bleeding assay; assay type: in vivo; details: 24 hours post IV; ML355 1.5 mg/kg, sHDL 50 mg/kg
Method: Male and female C57BL/6J mice (n=6) were intravenously dosed with the following treatments: 1) vehicle control (equivalent volume); 2) ML355 (1.5 mg/kg); 3) sHDL (50 mg/kg); or 4) ML355-sHDL (sHDL at 50 mg/kg and ML355 at 1.5 mg/kg). The tail bleeding assay was performed post 24 hour of treatment as previously described (44, 56). Briefly, mice were anesthetized as described above and placed on a heating pad. Five millimeters of tail tip was excised, and the tails were immediately immersed in 14 mL of sterile saline at 37° C. Bleeding time was recorded as the cessation of blood flow from the tail for at least […] using a stopwatch. The amount of blood loss from tail tip was quantified by measuring hemoglobin using Drabkin's reagent (Sigma). Briefly, blood samples were pelleted at 500 g for 10 minutes at room temperature, and the pellet was resuspended in 5 mL Drabkin's Reagent and incubated at room temperature for 15 minutes. Amount of hemoglobin lost was quantified by comparing the absorbance of the samples at 540 nm using SpectraMax i3 microplate reader (Molecular Devices LLC., San Jose, CA) to a standard curve of bovine hemoglobin in Drabkin's reagent.

whole blood = test: Coagulation tests by thromboelastography; assay type: in vivo, mouse; details: 24 hours post IV; ML355 1.5 mg/kg, sHDL 50 mg/kg
Method: Male and female C57BL/6J mice (n=6) were intravenously injected with vehicle control (equivalent volume of saline), ML355 (1.5 mg/kg), sHDL (50 mg/kg) or ML355-sHDL (sHDL at 50 mg/kg and ML355 at 1.5 mg/kg), respectively. 24 hours after administration, mice were anesthetized by intraperitoneal injection of ketamine/xylazine mixture as described above. Whole blood was collected via vena cava using a 25 G syringe containing sodium citrate 3.8% (blood to citrate volume ratio is […]). 340 μL citrated blood was mixed with 20 μL CaCl2 (0.2 mol/L), and viscoelastic properties of whole blood clot formation was studied under low shear stress using a Heamoscope TEG 5000 Thrombelastograph Hemostasis Analyzer (Haemonetics Corp., Braintree, Massachusetts, USA) according to the manufacturer's instructions. Major coagulation parameters including R time (time to formation of the initial fibrin threads), Alpha angle (the rapidity with which the clot forms), K time (the time until the clot reaches a certain strength) and maximum amplitude (clot's maximum strength) were analyzed and compared among different groups.

[4] = pH 7.4 PBS; cited from earlier work

Question: Which platelet aggregation (washed human platelets; 0.1 nM thrombin) does the source give for `COc1cccc(CNc2ccc(S(=O)(=O)Nc3nc4ccccc4s3)cc2)c1O` [ML355, N-2-benzothiazolyl-4-[[(2-hydroxy-3-methoxyphenyl)methyl]amino]-benzenesulfonamide] here?
Answer: The platelet aggregation was 5.6±2.5%.

Question: What about the platelet aggregation (washed human platelets; 0.25 nM thrombin) of the same molecule?
Answer: The platelet aggregation was 40.4±6.8%.

Question: What about the platelet aggregation (washed human platelets; 0.5 nM thrombin) of the same molecule?
Answer: The platelet aggregation was 76.4±4.7%.

Question: What about the platelet aggregation (washed mouse platelets; 0.1 nM thrombin) of the same molecule?
Answer: Its platelet aggregation is 20.3±3.5%.

Question: And the platelet aggregation (washed mouse platelets; 0.25 nM thrombin)?
Answer: Its platelet aggregation is 32.6±6.6%.

Question: What about the “inhibitory effects on platelet aggregation” value (washed mouse platelets; 0.5 nM thrombin, 24 hours after IV dosing) of the same molecule?
Answer: Its value is “overcome”.

Question: What about the “inhibition of thrombus formation (platelet accumulation in thrombi)” value (C57BL/6J mice [1]) of the same molecule?
Answer: The value was “varying levels of inhibition”.

Question: And the “thrombus growth (and vessel occlusion)” value (C57BL/6J mice [2])?
Answer: Its value is “delayed and unstable”.

Question: And the “mean vessel occlusion time” value (C57BL/6J mice [2]; ML355 1.5 mg/kg, sHDL 50 mg/kg)?
Answer: The value was 11.0 ± 2.3 min.

Question: What about the platelet phosphatidylserine exposure (platelets) of the same molecule?
Answer: Its platelet phosphatidylserine exposure is “did not increase”.

Question: And the “blood loss evaluated by measuring hemoglobin” value (C57BL/6J mice [3])?
Answer: The value was “no effect”.

Question: And the tail bleeding time (C57BL/6J mice [3])?
Answer: The tail bleeding time was “did not prolong”.

Question: And the “coagulation (TEG parameters R time, K time, alpha angle, MA)” value (whole blood)?
Answer: Its value is “did not compromise the coagulation”.

Question: What about the estimated solubility [4] of the same molecule?
Answer: The estimated solubility was less than 5 µg/mL.
